Assay results from ChEMBL document CHEMBL5120772, “Discovery of ASP5878: Synthesis and structure-activity relationships of pyrimidine derivatives as pan-FGFRs inhibitors with improved metabolic stability and suppressed hERG channel inhibitory activity” (Bioorg Med Chem, 2022).

What was measured:
[1] = target: Voltage-gated inwardly rectifying potassium channel KCNH2 (Homo sapiens, UniProt Q12809); experiment: Inhibition of hERG channel expressed in CHO cells at -80 mV holding potential by Qpatch clamp method
[2] = Intrinsic clearance in human liver microsomes
NIH3T3 = experiment: Cytotoxicity against mouse NIH/3T3 cells overexpressing FGFR3 S249C assessed as cell growth inhibition incubated for 5 days by CellTitre-Glo assay; settings: NIH3T3, 120 h
[3] = Plasma concentration in ICR mouse at 30 mg/kg, po measured after 6 hrs of administration by LC-MS/MS analysis; type: ADME, organism-based
[4] = Permeability of the compound in aqueous buffer at pH 6.5 incubated for 2 hrs by PAMPA based HPLC analysis
[5] = Lipophilicity, logD of the compound in 1-octanol and phosphate buffer at pH 7.4 by LC-MS analysis
animal or person = settings: Mus musculus, Balb/c, NIH3T3, po, 6 h, read-out: INH
[6] = Ratio of drug concentration in brain to plasma (Kp,brain) in Sprague-Dawley rat at 1 mg/kg, po measured after 4 hrs
[7] = Ratio of drug concentration in brain to plasma (Kp,brain) in Sprague-Dawley rat at 1 mg/kg, po measured after 1 hr
[8] = Ratio of drug concentration in brain to plasma (Kp,brain) in Sprague-Dawley rat at 1 mg/kg, po measured after 24 hrs
[9] = target: Fibroblast growth factor receptor 3 (Homo sapiens, UniProt P22607); experiment: Inhibition of wild type N-terminal GST tagged FGFR3 (436 to 806 residues) (unknown origin) expressed in sf21 insect cells preincubated for 30 mins followed by substrate addition and measured after 30 mins in presence of ATP by off-chip mobility shift assay
in vivo [10] = settings: beagle, dog, po, 100 mg/kg
in vivo [11] = settings: beagle, dog, po, 1 mg/kg
[12] = Volume of distribution at steady state in Sprague-Dawley rat at 0.3 mg/kg, iv measured up to 24 hrs by LC-MS/MS analysis; settings: in vivo
in vivo [13] = settings: beagle, dog, po, 10 mg/kg
in vivo [14] = settings: beagle, dog, iv, 0.1 mg/kg
in vivo [15] = settings: beagle, dog, po, 1 mg/kg; remark: listed apart in the source
in vivo [16] = settings: beagle, dog, po, 100 mg/kg; remark: listed apart in the source
hERG [17] = target: T1, hERG (Homo sapiens, UniProt Q12809); experiment: Inhibition of hERG in HEK293 cells assessed as mean compensated suppression rate at 10 uM incubated for 13 mins by whole cell patch clamp assay relative to control; settings: HEK293 cells expressing hERG
[18] = Half-life in Sprague-Dawley rat at 0.3 mg/kg, iv measured up to 24 hrs by LC-MS/MS analysis; settings: in vivo
in vivo [19] = settings: beagle, dog, po, 0.1 mg/kg
hERG [20] = target: T1, hERG; experiment: Inhibition of hERG in HEK293 cells assessed as mean compensated suppression rate at 1 uM incubated for 13 mins by whole cell patch clamp assay relative to control; settings: HEK293 cells expressing hERG
in vivo [21] = settings: Sprague-Dawley, rat, po, 0.3 mg/kg
in vivo [22] = settings: Sprague-Dawley, rat, iv, 0.3 mg/kg
[23] = Volume of distribution at steady state in Beagle dog at 0.1 mg/kg, iv measured up to 72 hrs by LC-MS/MS analysis; settings: in vivo
[24] = AUCinfinity in Beagle dog at 0.1 mg/kg, po measured upto 72 hrs by LC-MS/MS analysis; settings: in vivo
in vivo [25] = settings: Sprague-Dawley, rat, po, 0.3 mg/kg; remark: listed apart in the source
[26] = Half-life in Beagle dog at 0.1 mg/kg, iv measured up to 72 hrs by LC-MS/MS analysis; settings: in vivo
[27] = AUCinfinity in Beagle dog at 0.1 mg/kg, iv measured up to 72 hrs by LC-MS/MS analysis; settings: in vivo
hERG [28] = target: T1, hERG; experiment: Inhibition of hERG in HEK293 cells assessed as mean compensated suppression rate at 3 uM incubated for 13 mins by whole cell patch clamp assay relative to control; settings: HEK293 cells expressing hERG
[29] = AUCinfinity in Sprague-Dawley rat at 0.3 mg/kg, po measured upto 24 hrs by LC-MS/MS analysis; settings: in vivo
[30] = dog, in vivo, po, 10 mg/kg, 72 h
[31] = dog, in vivo, po, 100 mg/kg, 72 h
[32] = AUCinfinity in Sprague-Dawley rat at 0.3 mg/kg, iv measured up to 24 hrs by LC-MS/MS analysis; settings: in vivo
in vivo [33] = settings: beagle, dog, po, 0.1 mg/kg; remark: listed apart in the source
in vivo [34] = settings: beagle, dog, po, 0.1 mg/kg; remark: listed apart in the source
in vivo [35] = settings: Sprague-Dawley, rat, po, 0.3 mg/kg; remark: listed apart in the source
[36] = dog, in vivo, po, 10 mg/kg, 72 h; remark: listed apart in the source
in vivo [37] = settings: beagle, dog, po, 1 mg/kg; remark: listed apart in the source

T1 sequence (Q12809 whole entry): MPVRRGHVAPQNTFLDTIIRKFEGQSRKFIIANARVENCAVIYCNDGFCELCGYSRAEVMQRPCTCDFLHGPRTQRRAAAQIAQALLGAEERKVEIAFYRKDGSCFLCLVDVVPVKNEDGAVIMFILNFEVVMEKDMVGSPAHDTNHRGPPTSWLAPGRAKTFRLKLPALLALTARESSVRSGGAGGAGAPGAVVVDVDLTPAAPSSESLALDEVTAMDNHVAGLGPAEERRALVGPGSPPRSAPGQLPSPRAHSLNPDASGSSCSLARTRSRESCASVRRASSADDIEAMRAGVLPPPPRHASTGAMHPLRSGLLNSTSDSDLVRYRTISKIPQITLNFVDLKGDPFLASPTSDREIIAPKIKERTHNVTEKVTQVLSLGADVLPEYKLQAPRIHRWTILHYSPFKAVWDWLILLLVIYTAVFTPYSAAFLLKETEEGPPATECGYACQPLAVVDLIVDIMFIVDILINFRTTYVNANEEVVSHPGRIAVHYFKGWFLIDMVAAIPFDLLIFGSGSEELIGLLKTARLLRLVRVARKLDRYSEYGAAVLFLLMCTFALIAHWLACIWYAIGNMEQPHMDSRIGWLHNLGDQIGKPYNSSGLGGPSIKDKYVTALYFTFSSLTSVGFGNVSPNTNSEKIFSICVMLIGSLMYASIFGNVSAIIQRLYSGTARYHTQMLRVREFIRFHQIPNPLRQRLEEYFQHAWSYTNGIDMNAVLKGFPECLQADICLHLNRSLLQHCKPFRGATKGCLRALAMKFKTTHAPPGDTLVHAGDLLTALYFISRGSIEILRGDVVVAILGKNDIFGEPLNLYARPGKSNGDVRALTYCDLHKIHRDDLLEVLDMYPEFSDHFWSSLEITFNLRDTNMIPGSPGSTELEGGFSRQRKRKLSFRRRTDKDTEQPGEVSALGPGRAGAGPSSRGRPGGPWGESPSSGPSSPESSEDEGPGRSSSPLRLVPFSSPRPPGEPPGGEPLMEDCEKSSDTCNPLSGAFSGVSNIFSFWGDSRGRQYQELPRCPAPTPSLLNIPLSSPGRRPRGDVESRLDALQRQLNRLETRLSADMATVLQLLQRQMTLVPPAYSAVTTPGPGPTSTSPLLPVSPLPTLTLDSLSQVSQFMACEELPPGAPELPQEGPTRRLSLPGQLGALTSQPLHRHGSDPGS
Sequence of Voltage-gated inwardly rectifying potassium channel KCNH2 (Q12809 whole entry): as above
Sequence of Fibroblast growth factor receptor 3 (P22607 whole entry, the tested form may be a part): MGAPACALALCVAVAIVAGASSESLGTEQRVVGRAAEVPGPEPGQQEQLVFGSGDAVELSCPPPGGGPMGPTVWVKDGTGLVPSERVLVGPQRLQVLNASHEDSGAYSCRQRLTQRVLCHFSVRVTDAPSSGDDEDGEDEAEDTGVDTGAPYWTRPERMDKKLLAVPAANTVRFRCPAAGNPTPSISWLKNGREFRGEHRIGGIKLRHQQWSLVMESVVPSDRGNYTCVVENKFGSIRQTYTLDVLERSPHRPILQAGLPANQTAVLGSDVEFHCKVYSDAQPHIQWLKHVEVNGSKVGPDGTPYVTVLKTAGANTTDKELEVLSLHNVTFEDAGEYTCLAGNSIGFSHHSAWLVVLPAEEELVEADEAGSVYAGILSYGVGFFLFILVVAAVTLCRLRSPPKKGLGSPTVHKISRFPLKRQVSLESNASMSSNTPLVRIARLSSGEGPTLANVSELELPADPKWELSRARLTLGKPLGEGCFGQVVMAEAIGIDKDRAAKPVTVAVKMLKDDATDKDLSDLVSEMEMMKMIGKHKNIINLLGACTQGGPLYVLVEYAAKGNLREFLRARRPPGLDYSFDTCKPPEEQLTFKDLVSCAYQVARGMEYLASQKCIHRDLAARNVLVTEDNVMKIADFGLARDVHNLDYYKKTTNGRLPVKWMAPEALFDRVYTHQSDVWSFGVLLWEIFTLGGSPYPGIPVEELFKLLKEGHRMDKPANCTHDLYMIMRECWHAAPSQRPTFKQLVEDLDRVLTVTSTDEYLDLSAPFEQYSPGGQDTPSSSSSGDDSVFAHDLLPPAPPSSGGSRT

COc1cc(Nc2ncc(CCc3c(F)c(OC)cc(OC)c3F)cn2)ccc1N1CCC(N2CCN(C)CC2)CC1
IC50 [1]: 10000 nM
CLint scaled ([2]; liver microsomes): 171 mL/min/kg

COc1cc(Nc2ncc(OCc3c(F)c(OC)cc(OC)c3F)cn2)ccc1N1CCC(N2CCN(C)CC2)CC1
IC50 [1]: > 3000 nM
IC50 (NIH3T3): 13 nM
concentration at 6 h [3]: 2790 nM
Papp at 2 h [4]: 11.2 ×10⁻⁶ cm/s
logD ([5]; 1-octanol/phosphate buffer): 3.3
CLint scaled ([2]; liver microsomes): 40 mL/min/kg
inhibition in vivo at 30 mg/kg (animal or person): 67%

COc1cc(Nc2ncc(OCc3c(F)c(OC)cc(OC)c3F)cn2)ccc1N1CCN(C)CC1
IC50 [1]: > 3000 nM
Papp at 2 h [4]: 16.2 ×10⁻⁶ cm/s
logD ([5]; 1-octanol/phosphate buffer): 3
CLint scaled ([2]; liver microsomes): 39 mL/min/kg

CCOc1cc(Nc2ncc(OCc3c(F)c(OC)cc(OC)c3F)cn2)ccc1N1CCC(N2CCN(C)CC2)CC1
IC50 [1]: > 3000 nM
Papp at 2 h [4]: 16.8 ×10⁻⁶ cm/s
logD ([5]; 1-octanol/phosphate buffer): 3.8
CLint scaled ([2]; liver microsomes): < 23 mL/min/kg

COc1cc(Nc2ncc(CCc3c(F)c(OC)cc(OC)c3F)cn2)ccc1N1CCC(N(C)C2CCN(C)CC2)CC1.Cl.Cl.Cl.Cl
IC50 [1]: > 1000 nM
IC50 (NIH3T3): 24 nM
Papp at 2 h [4]: < 0.9 ×10⁻⁶ cm/s
logD ([5]; 1-octanol/phosphate buffer): 2.5
CLint scaled ([2]; liver microsomes): 48 mL/min/kg

COc1cc(OC)c(F)c(COc2cnc(Nc3cnc(N4CCC(N5CCN(C)CC5)CC4)nc3)nc2)c1F
CLint scaled ([2]; liver microsomes): 39 mL/min/kg

COc1cc(OC)c(F)c(COc2cnc(Nc3ccc(N4CCC(N5CCN(C)CC5)CC4)nc3)nc2)c1F
CLint scaled ([2]; liver microsomes): 34 mL/min/kg

COc1cc(OC)c(F)c(COc2cnc(Nc3cnn(CCO)c3)n[14cH]2)c1F
Kp at 4 h [6]: 0.2
Kp at 1 h [7]: 0.15
Kp at 24 h [8]: 0.69

COc1cc(Nc2ncc(CCc3c(F)c(OC)cc(OC)c3F)cn2)ccc1N1CCN(C)CC1
IC50 (NIH3T3): 18 nM
Papp at 2 h [4]: > 30 ×10⁻⁶ cm/s
logD ([5]; 1-octanol/phosphate buffer): 3
CLint scaled ([2]; liver microsomes): 101 mL/min/kg

COc1cc(Nc2ncc(CCc3c(F)c(OC)cc(OC)c3F)cn2)ccc1N1CCN(C2CCN(C)CC2)CC1
CLint scaled ([2]; liver microsomes): 51 mL/min/kg

COc1cc(Nc2ncc(OCc3c(F)c(OC)cc(OC)c3F)cn2)cnc1N1CCC(N2CCN(C)CC2)CC1
CLint scaled ([2]; liver microsomes): 26 mL/min/kg

COc1cc(OC)c(F)c(COc2cnc(Nc3cnn(CCNC4CCN(C)CC4)c3)nc2)c1F.Cl.Cl.Cl
IC50 [1]: 83000 nM
IC50 (NIH3T3): 32 nM
concentration at 6 h [3]: 50.2 nM
Papp at 2 h [4]: < 1.4 ×10⁻⁶ cm/s
logD ([5]; 1-octanol/phosphate buffer): 0.7
CLint scaled ([2]; liver microsomes): < 23 mL/min/kg

COc1cc(OC)c(F)c(COc2cnc(Nc3cnn(CCN4CCNCC4)c3)nc2)c1F.Cl.Cl.Cl
IC50 [1]: 89000 nM
IC50 (NIH3T3): 13 nM
concentration at 6 h [3]: 305 nM
Papp at 2 h [4]: < 1.1 ×10⁻⁶ cm/s
logD ([5]; 1-octanol/phosphate buffer): 0.2
CLint scaled ([2]; liver microsomes): < 23 mL/min/kg

COc1cc(OC)c(F)c(COc2cnc(Nc3ccc(N4CCC(N5CCN(C)CC5)CC4)c(F)c3)nc2)c1F
IC50 [9]: < 1 nM
IC50 (NIH3T3): 5.5 nM
CLint scaled ([2]; liver microsomes): 42 mL/min/kg

COc1cc(OC)c(F)c(COc2cnc(Nc3ccc(N4CCC(N5CCN(C)CC5)CC4)c(C)c3)nc2)c1F
IC50 (NIH3T3): 20 nM
Papp at 2 h [4]: 20.6 ×10⁻⁶ cm/s
logD ([5]; 1-octanol/phosphate buffer): 4.1
CLint scaled ([2]; liver microsomes): 58 mL/min/kg

COc1cc(OC)c(F)c(COc2cnc(Nc3cnn(CCO)c3)nc2)c1F [ASP-5878]
Tmax at 72 h (in vivo [10]): 4.5 h
Cmax at 72 h (in vivo [11]): 769 ng/mL
IC50 [1]: > 10000 nM
Vd at 24 h [12]: 0.671 L/kg
Tmax at 72 h (in vivo [13]): 3 h
clearance at 72 h (in vivo [14]): 1.33 mL/min/kg
Tmax at 72 h (in vivo [15]): 1.3 h
AUC(0-t) at 72 h (in vivo [16]): 111000 ng·h/mL
inhibition at 13 min, 10 µM (hERG [17]): 9.1%
half-life at 24 h [18]: 1.7 h
Cmax at 72 h (in vivo [19]): 119 ng/mL
inhibition at 13 min, 1 µM (hERG [20]): 7%
bioavailability at 24 h (in vivo [21]): 76.1%
clearance at 24 h (in vivo [22]): 5.82 mL/min/kg
IC50 (NIH3T3): 11 nM
Vd at 72 h [23]: 0.665 L/kg
concentration at 6 h [3]: 1570 nM
AUC(0-inf) at 72 h [24]: 1180 ng·h/mL
Cmax at 24 h (in vivo [25]): 196 ng/mL
Papp at 2 h [4]: 13.3 ×10⁻⁶ cm/s
half-life at 72 h [26]: 9.6 h
AUC(0-inf) at 72 h [27]: 1260 ng·h/mL
logD ([5]; octanol/water): 2.3
inhibition at 13 min, 3 µM (hERG [28]): 9.1%
AUC(0-inf) at 24 h [29]: 657 ng·h/mL
Cmax [30]: 3540 ng/mL
Cmax [31]: 9020 ng/mL
AUC(0-inf) at 24 h [32]: 864 ng·h/mL
bioavailability at 72 h (in vivo [33]): 94.2%
Tmax at 72 h (in vivo [34]): 1 h
Tmax at 24 h (in vivo [35]): 1 h
CLint scaled ([2]; microsomes): < 23 mL/min/kg
AUC [36]: 39600 ng·h/mL
AUC(0-t) at 72 h (in vivo [37]): 5710 ng·h/mL
